{"source": "patent US5053070A", "about": "“Pyrimidine derivatives, preparation processes thereof, herbicide containing the same, and herbicidal compositions containing the same along with other active ingredient” (Mitsui Toatsu Chemicals, Incorporated, priority 1988, dated 1991)", "key": {"rice": {"system": "rice", "assay": "Treatment of soil under submerged condition, post-emergence (Test 5), injury", "assay_type": "in vivo", "conditions": "30 g ai/a granule, 30 days later", "how_it_was_run": "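Pots of submerged soil were sown with weed seeds or tubers, and 2-3-leaf rice seedling pairs were transplanted. At barnyardgrass two-leaf stage a granule formulation was applied. Weed emergence and rice injury were rated 30 days later as damage degrees.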"}, "[1]": {"system": "ALS (acetolactate syntase)", "assay": "ALS enzyme assay (Test 1)", "assay_type": "biochemical, barnyardgrass", "conditions": "1,000 ppm (0.5 mg/0.5 ml)", "how_it_was_run": "(§1)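 Partially purified ALS from dark-grown pea and barnyardgrass seedlings incubated 1 h at 30° C with pyruvate, TPP, MgCl2 and FAD. Compounds tested at 1,000 ppm (0.5 mg/0.5 ml). Acetoin formed detected colorimetrically at 525 nm via creatine/α-naphthol, relative to blank and acid-stopped controls.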"}, "narrowleaf waterplantain": {"system": "narrowleaf waterplantain", "assay": "Petri dish test (Test 6)", "assay_type": "in vivo", "conditions": "336 h; seeds on filter paper, 25° C., 14 days; read-out: I80 (ppm)", "how_it_was_run": "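Narrowleaf waterplantain seeds placed on filter paper pre-treated with compound in acetone (solvent air-dried) in 9 cm Petri dishes with 10 ml water, grown at 25° C in light. Growth was scored after fourteen days as degree of damage against an untreated group.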"}, "common lambsquarters": {"system": "common lambsquarters", "assay": "Upland foliar application test (Test 3)", "assay_type": "in vivo", "conditions": "30 g ai/a, foliar spray at 2-3 leaves, 30th day", "how_it_was_run": "(§2)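 Scores record the degree of damage to weeds and injury to crops, observed 30 days after treatment. Each species was seeded in pots of upland-field soil and raised under glass to 2-3 leaves, then its foliage was sprayed with diluted compound emulsion at 5 l per are.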"}, "green foxtail": {"system": "green foxtail", "assay": "Upland foliar application test (Test 3)", "assay_type": "in vivo", "conditions": "30 g ai/a, foliar spray at 2-3 leaves, 30th day", "how_it_was_run": "as §2"}, "barnyardgrass": {"system": "barnyardgrass", "assay": "Upland foliar application test (Test 3)", "assay_type": "in vivo", "conditions": "30 g ai/a, foliar spray at 2-3 leaves, 30th day", "how_it_was_run": "as §2"}, "large crabgrass": {"system": "large crabgrass", "assay": "Upland foliar application test (Test 3)", "assay_type": "in vivo", "conditions": "30 g ai/a, foliar spray at 2-3 leaves, 30th day", "how_it_was_run": "as §2"}, "johnsongrass": {"system": "johnsongrass", "assay": "Upland foliar application test (Test 3)", "assay_type": "in vivo", "conditions": "30 g ai/a, foliar spray at 2-3 leaves, 30th day", "how_it_was_run": "as §2"}, "redroot pigweed": {"system": "redroot pigweed", "assay": "Upland foliar application test (Test 3)", "assay_type": "in vivo", "conditions": "30 g ai/a, foliar spray at 2-3 leaves, 30th day", "how_it_was_run": "as §2"}, "foxtail meadow": {"system": "foxtail meadow", "assay": "Upland foliar application test (Test 3)", "assay_type": "in vivo", "conditions": "30 g ai/a, foliar spray at 2-3 leaves, 30th day", "how_it_was_run": "as §2"}, "[2]": {"system": "ALS (acetolactate syntase)", "assay": "ALS enzyme assay (Test 1)", "assay_type": "biochemical, pea", "conditions": "1,000 ppm (0.5 mg/0.5 ml)", "how_it_was_run": "as §1"}, "soybean": {"system": "soybean", "assay": "Upland soil application test (Test 2), crop injury", "assay_type": "in vivo", "conditions": "30 g ai/a, soil spray before emergence, 30 days later", "how_it_was_run": "(§3)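 Pre-emergence soil spray, greenhouse. Weed seeds mixed through upland soil; crops sown alongside. Day 1 post-sowing: wettable-powder formulation, water-diluted, applied at 10 l/are by pressure ULV sprayer. Read at 30 days as air-dried weight vs untreated pots, scored on a graded damage scale.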"}, "peanut": {"system": "peanut", "assay": "Upland soil application test (Test 2), crop injury", "assay_type": "in vivo", "conditions": "30 g ai/a, soil spray before emergence, 30 days later", "how_it_was_run": "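Weeds are grown from seed incorporated in upland field soil under greenhouse conditions and treated pre-emergence, one day after sowing, with a water-diluted wettable powder of each compound. Effect is scored after 30 days from air-dried weight relative to untreated pots.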"}, "cotton": {"system": "cotton", "assay": "Upland soil application test (Test 2), crop injury", "assay_type": "in vivo", "conditions": "30 g ai/a, soil spray before emergence, 30 days later", "how_it_was_run": "as §3"}}, "data": [{"smiles": "COc1cc(OC)nc(Oc2ccccc2C=NOCC#Cc2ccccc2)n1", "note": "[compound 42]", "values": [{"measurement": "Injury Rice", "setting": "rice", "value": "0 (91-100 (No damages))"}, {"measurement": "Inhibitory activity (%) Barnyardgrass", "setting": "[1]", "value": 93, "unit": "%"}, {"measurement": "IC80", "setting": "narrowleaf waterplantain", "value": 17, "unit": "µg/mL"}, {"measurement": "Herbicidal effects Common lambsquarters", "setting": "common lambsquarters", "value": "4 (6-10 (Severe damages))"}, {"measurement": "Herbicidal effects Green foxtail", "setting": "green foxtail", "value": "5 (0-5 (Death))"}, {"measurement": "Herbicidal effects Barnyardgrass", "setting": "barnyardgrass", "value": "5 (0-5 (Death))"}, {"measurement": "Herbicidal effects Large crabgrass", "setting": "large crabgrass", "value": "3 (11-40 (Medium damages))"}, {"measurement": "Herbicidal effects Johnsongrass", "setting": "johnsongrass", "value": "5 (0-5 (Death))"}, {"measurement": "Herbicidal effects Redroot pigweed", "setting": "redroot pigweed", "value": "5 (0-5 (Death))"}, {"measurement": "Herbicidal effects Foxtail meadow", "setting": "foxtail meadow", "value": "5 (0-5 (Death))"}, {"measurement": "Inhibitory activity (%) Pea", "setting": "[2]", "value": 0, "unit": "%"}, {"measurement": "Injury Soybean", "setting": "soybean", "value": "0 (91-100 (No damages))"}, {"measurement": "Injury Peanut", "setting": "peanut", "value": "0 (91-100 (No damages))"}, {"measurement": "Injury Cotton", "setting": "cotton", "value": "0 (91-100 (No damages))"}]}, {"smiles": "COc1cc(OC)nc(Oc2ccccc2C=NOCC=Cc2c(F)cccc2F)n1", "note": "[compound 33]", "values": [{"measurement": "Injury Rice", "setting": "rice", "value": "1 (71-90 (Slight damages))"}, {"measurement": "Inhibitory activity (%) Barnyardgrass", "setting": "[1]", "value": 91, "unit": "%"}, {"measurement": "IC80", "setting": "narrowleaf waterplantain", "value": 8, "unit": "µg/mL"}, {"measurement": "Herbicidal effects Common lambsquarters", "setting": "common lambsquarters", "value": "4 (6-10 (Severe damages))"}, {"measurement": "Herbicidal effects Green foxtail", "setting": "green foxtail", "value": "5 (0-5 (Death))"}, {"measurement": "Herbicidal effects Barnyardgrass", "setting": "barnyardgrass", "value": "5 (0-5 (Death))"}, {"measurement": "Herbicidal effects Large crabgrass", "setting": "large crabgrass", "value": "5 (0-5 (Death))"}, {"measurement": "Herbicidal effects Johnsongrass", "setting": "johnsongrass", "value": "5 (0-5 (Death))"}, {"measurement": "Herbicidal effects Redroot pigweed", "setting": "redroot pigweed", "value": "4 (6-10 (Severe damages))"}, {"measurement": "Herbicidal effects Foxtail meadow", "setting": "foxtail meadow", "value": "5 (0-5 (Death))"}, {"measurement": "Inhibitory activity (%) Pea", "setting": "[2]", "value": 0, "unit": "%"}, {"measurement": "Injury Soybean", "setting": "soybean", "value": "0 (91-100 (No damages))"}, {"measurement": "Injury Peanut", "setting": "peanut", "value": "0 (91-100 (No damages))"}, {"measurement": "Injury Cotton", "setting": "cotton", "value": "0 (91-100 (No damages))"}]}, {"smiles": "COc1cc(OC)nc(Oc2ccccc2C=NOCC=Cc2ccccc2)n1", "note": "[Compound No. 9]", "values": [{"measurement": "Injury Rice", "setting": "rice", "value": "0 (91-100 (No damages))"}, {"measurement": "Inhibitory activity (%) Barnyardgrass", "setting": "[1]", "value": 95, "unit": "%"}, {"measurement": "IC80", "setting": "narrowleaf waterplantain", "value": 2, "unit": "µg/mL"}, {"measurement": "Herbicidal effects Common lambsquarters", "setting": "common lambsquarters", "value": "4 (6-10 (Severe damages))"}, {"measurement": "Herbicidal effects Green foxtail", "setting": "green foxtail", "value": "5 (0-5 (Death))"}, {"measurement": "Herbicidal effects Barnyardgrass", "setting": "barnyardgrass", "value": "5 (0-5 (Death))"}, {"measurement": "Herbicidal effects Large crabgrass", "setting": "large crabgrass", "value": "5 (0-5 (Death))"}, {"measurement": "Herbicidal effects Johnsongrass", "setting": "johnsongrass", "value": "5 (0-5 (Death))"}, {"measurement": "Herbicidal effects Redroot pigweed", "setting": "redroot pigweed", "value": "5 (0-5 (Death))"}, {"measurement": "Herbicidal effects Foxtail meadow", "setting": "foxtail meadow", "value": "5 (0-5 (Death))"}, {"measurement": "Inhibitory activity (%) Pea", "setting": "[2]", "value": 11, "unit": "%"}, {"measurement": "Injury Soybean", "setting": "soybean", "value": "0 (91-100 (No damages))"}, {"measurement": "Injury Peanut", "setting": "peanut", "value": "0 (91-100 (No damages))"}, {"measurement": "Injury Cotton", "setting": "cotton", "value": "0 (91-100 (No damages))"}]}, {"smiles": "COc1cc(OC)nc(Oc2ccccc2C=O)n1", "note": "[B, reference compound]", "values": [{"measurement": "Injury Rice", "setting": "rice", "value": "5 (0-5 (Death))"}, {"measurement": "Inhibitory activity (%) Barnyardgrass", "setting": "[1]", "value": 98, "unit": "%"}, {"measurement": "IC80", "setting": "narrowleaf waterplantain", "value": 1, "unit": "µg/mL"}, {"measurement": "Herbicidal effects Common lambsquarters", "setting": "common lambsquarters", "value": "3 (11-40 (Medium damages))"}, {"measurement": "Herbicidal effects Green foxtail", "setting": "green foxtail", "value": "4 (6-10 (Severe damages))"}, {"measurement": "Herbicidal effects Barnyardgrass", "setting": "barnyardgrass", "value": "4 (6-10 (Severe damages))"}, {"measurement": "Herbicidal effects Large crabgrass", "setting": "large crabgrass", "value": "4 (6-10 (Severe damages))"}, {"measurement": "Herbicidal effects Johnsongrass", "setting": "johnsongrass", "value": "4 (6-10 (Severe damages))"}, {"measurement": "Herbicidal effects Redroot pigweed", "setting": "redroot pigweed", "value": "3 (11-40 (Medium damages))"}, {"measurement": "Herbicidal effects Foxtail meadow", "setting": "foxtail meadow", "value": "4 (6-10 (Severe damages))"}, {"measurement": "Inhibitory activity (%) Pea", "setting": "[2]", "value": 92, "unit": "%"}, {"measurement": "Injury Soybean", "setting": "soybean", "value": "5 (0-5 (Death))"}, {"measurement": "Injury Peanut", "setting": "peanut", "value": "5 (0-5 (Death))"}, {"measurement": "Injury Cotton", "setting": "cotton", "value": "5 (0-5 (Death))"}]}, {"smiles": "COc1cc(OC)nc(Oc2ccccc2C=NOCC=Cc2ccc(Cl)c(Cl)c2)n1", "note": "[compound 31]", "values": [{"measurement": "Injury Rice", "setting": "rice", "value": "0 (91-100 (No damages))"}, {"measurement": "Inhibitory activity (%) Barnyardgrass", "setting": "[1]", "value": 90, "unit": "%"}, {"measurement": "IC80", "setting": "narrowleaf waterplantain", "value": 2, "unit": "µg/mL"}, {"measurement": "Herbicidal effects Common lambsquarters", "setting": "common lambsquarters", "value": "4 (6-10 (Severe damages))"}, {"measurement": "Herbicidal effects Green foxtail", "setting": "green foxtail", "value": "4 (6-10 (Severe damages))"}, {"measurement": "Herbicidal effects Barnyardgrass", "setting": "barnyardgrass", "value": "4 (6-10 (Severe damages))"}, {"measurement": "Herbicidal effects Large crabgrass", "setting": "large crabgrass", "value": "4 (6-10 (Severe damages))"}, {"measurement": "Herbicidal effects Johnsongrass", "setting": "johnsongrass", "value": "5 (0-5 (Death))"}, {"measurement": "Herbicidal effects Redroot pigweed", "setting": "redroot pigweed", "value": "3 (11-40 (Medium damages))"}, {"measurement": "Herbicidal effects Foxtail meadow", "setting": "foxtail meadow", "value": "4 (6-10 (Severe damages))"}, {"measurement": "Inhibitory activity (%) Pea", "setting": "[2]", "value": 0, "unit": "%"}, {"measurement": "Injury Soybean", "setting": "soybean", "value": "0 (91-100 (No damages))"}, {"measurement": "Injury Peanut", "setting": "peanut", "value": "0 (91-100 (No damages))"}, {"measurement": "Injury Cotton", "setting": "cotton", "value": "0 (91-100 (No damages))"}]}]}
